Experiment [1] in a line: BJeHLT cell viability loss – BJeHLT cells, dry powder, counter-screen for Ras selective lethality project, dose response (AID 493052). The settings on record: Homo sapiens. The experiment is classed as functional, cell-based.
The nature of experiment [2]: DRD BJ cell killing, Ras synthetic lethality – DRD BJ fibroblasts, HRASV12, dry powder, dose response (AID 493049). The experiment is classed as functional, cell-based.
Experiment [3] can be described thus: HRAS-V12 fibroblast viability reduction – cell-based, Alamar Blue, dry powder, Ras selective lethality project, primary screen (AID 493045). The note with it: BJeLR. The experiment is classed as functional.
Experiment [4] in a line: BJeH cell viability loss – BJeH cells, dry powder, counter-screen for Ras selective lethality project, dose response (AID 493054). The experiment is classed as functional, cell-based. On the technique in general: Counterscreens check selectivity or assay interference.
The target in experiment [5] is Intestinal-type alkaline phosphatase (Homo sapiens, UniProt P09923). In words: Dose Response confirmation of uHTS hits from a small molecule inhibitors of human intestinal alkaline phosphatase via a luminescent assay. [Related pubchem assays (depositor defined):AID2544, AID2574]. The experiment is classed as functional.
Chain of Intestinal-type alkaline phosphatase (P09923 whole entry): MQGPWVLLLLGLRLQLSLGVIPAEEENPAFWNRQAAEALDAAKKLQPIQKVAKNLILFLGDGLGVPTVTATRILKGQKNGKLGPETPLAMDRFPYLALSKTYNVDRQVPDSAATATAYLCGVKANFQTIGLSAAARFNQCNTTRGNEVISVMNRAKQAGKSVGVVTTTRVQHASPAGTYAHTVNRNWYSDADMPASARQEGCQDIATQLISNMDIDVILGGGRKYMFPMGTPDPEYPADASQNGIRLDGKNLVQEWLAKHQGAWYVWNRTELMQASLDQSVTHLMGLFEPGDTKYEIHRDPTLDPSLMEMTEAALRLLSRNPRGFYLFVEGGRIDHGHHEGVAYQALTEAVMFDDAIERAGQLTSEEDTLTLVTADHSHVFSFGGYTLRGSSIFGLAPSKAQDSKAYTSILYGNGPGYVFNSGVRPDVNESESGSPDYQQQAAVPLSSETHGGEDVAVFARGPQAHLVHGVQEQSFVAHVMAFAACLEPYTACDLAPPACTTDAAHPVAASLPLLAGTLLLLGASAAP
Experiment [6] addresses T1, Corticotropin-releasing factor receptor 2/Corticotropin-releasing factor-binding protein (Homo sapiens, UniProt P24387+Q13324).
T1 sequence (Q13324 whole entry): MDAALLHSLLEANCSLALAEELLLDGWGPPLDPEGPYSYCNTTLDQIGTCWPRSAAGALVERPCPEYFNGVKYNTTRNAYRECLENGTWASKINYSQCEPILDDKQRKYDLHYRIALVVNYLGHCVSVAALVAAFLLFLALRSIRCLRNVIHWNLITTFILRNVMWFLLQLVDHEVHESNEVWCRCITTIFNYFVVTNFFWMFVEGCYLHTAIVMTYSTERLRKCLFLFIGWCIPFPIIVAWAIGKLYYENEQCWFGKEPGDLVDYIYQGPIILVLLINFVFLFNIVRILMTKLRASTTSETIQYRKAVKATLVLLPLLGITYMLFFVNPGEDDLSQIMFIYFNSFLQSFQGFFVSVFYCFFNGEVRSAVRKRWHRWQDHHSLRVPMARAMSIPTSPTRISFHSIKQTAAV
T1 sequence (P24387 whole entry): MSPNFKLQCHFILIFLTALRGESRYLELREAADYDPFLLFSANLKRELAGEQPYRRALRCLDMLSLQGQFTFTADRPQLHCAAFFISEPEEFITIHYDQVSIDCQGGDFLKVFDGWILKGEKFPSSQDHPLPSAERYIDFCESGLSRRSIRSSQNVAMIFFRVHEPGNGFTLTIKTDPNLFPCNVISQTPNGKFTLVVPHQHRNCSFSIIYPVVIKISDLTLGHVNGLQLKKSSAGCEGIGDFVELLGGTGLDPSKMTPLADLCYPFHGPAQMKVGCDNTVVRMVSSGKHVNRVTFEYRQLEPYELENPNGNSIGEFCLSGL
Briefly: Dose Response confirmation of uHTS hits for small molecule antagonists of the CRF-binding protein and CRF-R2 receptor complex. Type of experiment: functional. The settings on record: read-out: IC50_Mean.

Experiment [7] concerns the target T1, Corticotropin-releasing factor receptor 2/Corticotropin-releasing factor-binding protein. Briefly: activators of CRF receptor 2 with binding protein – uHTS hits, confirmation (AID 602473). The experiment is classed as functional. The settings on record: read-out: EC50_Mean.
Experiment [8] deals with Eukaryotic translation initiation factor 4H (Homo sapiens, UniProt Q15056). Briefly: inhibitors of translation initiation factor eIF4H – SAR follow-up (AID 435011). Type of experiment: functional.
Experiment [9] deals with Polyadenylate-binding protein 1 (Homo sapiens, UniProt P11940). Briefly: PABP inhibition in translation initiation, SAR follow-up (AID 435018). Type of experiment: functional.
Chain of Polyadenylate-binding protein 1 (P11940 whole entry): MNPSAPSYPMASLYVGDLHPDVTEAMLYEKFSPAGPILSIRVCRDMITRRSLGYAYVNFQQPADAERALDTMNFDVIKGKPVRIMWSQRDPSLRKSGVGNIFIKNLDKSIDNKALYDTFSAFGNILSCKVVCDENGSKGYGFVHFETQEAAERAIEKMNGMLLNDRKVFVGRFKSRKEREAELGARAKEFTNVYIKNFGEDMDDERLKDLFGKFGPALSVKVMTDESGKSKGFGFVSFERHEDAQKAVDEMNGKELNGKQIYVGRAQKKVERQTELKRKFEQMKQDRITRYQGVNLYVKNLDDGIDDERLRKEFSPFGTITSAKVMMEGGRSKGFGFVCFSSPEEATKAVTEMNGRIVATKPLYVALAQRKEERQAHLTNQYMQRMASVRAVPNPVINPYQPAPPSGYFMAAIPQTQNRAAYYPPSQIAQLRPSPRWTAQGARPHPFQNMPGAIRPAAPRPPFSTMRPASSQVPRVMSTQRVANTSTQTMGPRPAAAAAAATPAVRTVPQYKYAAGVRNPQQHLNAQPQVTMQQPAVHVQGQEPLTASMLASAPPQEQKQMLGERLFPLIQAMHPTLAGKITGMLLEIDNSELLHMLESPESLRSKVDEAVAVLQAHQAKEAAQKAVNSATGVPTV
For experiment [10], the target named is T2, Neuropeptide Y receptor type 1 (Homo sapiens, UniProt P25929).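 Further: HEK293 cells with a CNG channel challenged with NPY then isoproterenol; potency as antagonist that reverses NPY suppression of cAMP signal.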
T2 sequence (P25929 whole entry): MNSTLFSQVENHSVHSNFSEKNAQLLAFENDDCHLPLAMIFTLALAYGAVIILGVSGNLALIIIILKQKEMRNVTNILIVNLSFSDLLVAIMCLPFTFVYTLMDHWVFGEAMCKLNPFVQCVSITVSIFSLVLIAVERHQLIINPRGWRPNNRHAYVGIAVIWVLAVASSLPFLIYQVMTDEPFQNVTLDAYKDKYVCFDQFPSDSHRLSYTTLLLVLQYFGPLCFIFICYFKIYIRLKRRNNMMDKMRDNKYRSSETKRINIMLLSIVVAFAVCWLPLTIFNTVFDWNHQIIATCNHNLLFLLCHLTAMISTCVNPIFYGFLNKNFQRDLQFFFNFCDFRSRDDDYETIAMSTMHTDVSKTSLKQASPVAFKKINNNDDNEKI
The experiment is classed as functional.

In experiment [11] the target is Luciferin 4-monooxygenase (Photinus pyralis, UniProt P08659). Briefly: inhibition of purified Photinus pyralis luciferase – biochemical, luminescence, dose response (AID 1891).
Chain of Luciferin 4-monooxygenase (P08659 whole entry): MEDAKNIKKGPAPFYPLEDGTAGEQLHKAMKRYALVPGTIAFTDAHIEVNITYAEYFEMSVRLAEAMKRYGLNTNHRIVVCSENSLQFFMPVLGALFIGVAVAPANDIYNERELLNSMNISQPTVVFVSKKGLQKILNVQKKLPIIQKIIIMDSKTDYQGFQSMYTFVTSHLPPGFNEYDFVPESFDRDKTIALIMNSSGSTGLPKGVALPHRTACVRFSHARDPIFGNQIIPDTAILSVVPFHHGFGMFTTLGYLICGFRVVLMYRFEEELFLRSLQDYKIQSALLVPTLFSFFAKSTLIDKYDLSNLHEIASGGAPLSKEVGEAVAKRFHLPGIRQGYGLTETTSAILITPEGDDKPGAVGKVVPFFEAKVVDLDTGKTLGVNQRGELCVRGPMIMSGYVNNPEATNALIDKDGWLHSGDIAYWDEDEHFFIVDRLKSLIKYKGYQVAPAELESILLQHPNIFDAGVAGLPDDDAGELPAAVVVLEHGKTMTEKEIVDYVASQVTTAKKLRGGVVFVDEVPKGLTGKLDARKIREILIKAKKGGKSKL
A short description of experiment [12]: Luminescence Cell-Based Dose Confirmation HTS to Identify Inhibitors of Platelet Dense Granule Release. [Related pubchem assays: 1663 (Primary HTS), 1678 (Summary of Project)]. The experiment is classed as functional.
The target of experiment [13] is T3, Neuropeptide Y receptor type 2 (Homo sapiens, UniProt P49146).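 Further: HEK293 cells expressing the receptor and a CNG channel; stimulus was NPY near EC95 followed by isoproterenol to raise cAMP; antagonist potency measured as restoring cAMP signal that NPY suppresses.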
T3 sequence (P49146 whole entry): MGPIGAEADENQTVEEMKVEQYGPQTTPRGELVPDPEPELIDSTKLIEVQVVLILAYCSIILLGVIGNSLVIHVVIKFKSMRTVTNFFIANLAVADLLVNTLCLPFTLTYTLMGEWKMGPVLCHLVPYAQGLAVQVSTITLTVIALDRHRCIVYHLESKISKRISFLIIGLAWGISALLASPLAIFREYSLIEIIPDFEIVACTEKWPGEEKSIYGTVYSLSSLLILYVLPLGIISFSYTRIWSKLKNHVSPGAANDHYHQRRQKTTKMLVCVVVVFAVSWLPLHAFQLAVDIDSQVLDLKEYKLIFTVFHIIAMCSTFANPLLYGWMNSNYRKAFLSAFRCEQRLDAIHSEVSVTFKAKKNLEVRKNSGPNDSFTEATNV
The experiment is classed as functional, cell-based.

Another experiment has as its system Saccharomyces cerevisiae. In words: S. cerevisiae Caspase-1/ASC signal blockers IC50, NALP1 inhibitor project selectivity test (AID 488863). The experiment is classed as functional, organism-based.
Experiment [14] concerns the target NACHT, LRR and PYD domains-containing protein 1 (Homo sapiens, UniProt Q9C000). Briefly: NALP1 inhibitors in yeast, dose response, luminescent (AID 488860). Type of experiment: functional.

Each structure is given as a SMILES string. The source made the active and inactive calls. A value given as a limit tells only on which side of the number the result lay.

Chain of NACHT, LRR and PYD domains-containing protein 1 (Q9C000 1-1212 limits assumed): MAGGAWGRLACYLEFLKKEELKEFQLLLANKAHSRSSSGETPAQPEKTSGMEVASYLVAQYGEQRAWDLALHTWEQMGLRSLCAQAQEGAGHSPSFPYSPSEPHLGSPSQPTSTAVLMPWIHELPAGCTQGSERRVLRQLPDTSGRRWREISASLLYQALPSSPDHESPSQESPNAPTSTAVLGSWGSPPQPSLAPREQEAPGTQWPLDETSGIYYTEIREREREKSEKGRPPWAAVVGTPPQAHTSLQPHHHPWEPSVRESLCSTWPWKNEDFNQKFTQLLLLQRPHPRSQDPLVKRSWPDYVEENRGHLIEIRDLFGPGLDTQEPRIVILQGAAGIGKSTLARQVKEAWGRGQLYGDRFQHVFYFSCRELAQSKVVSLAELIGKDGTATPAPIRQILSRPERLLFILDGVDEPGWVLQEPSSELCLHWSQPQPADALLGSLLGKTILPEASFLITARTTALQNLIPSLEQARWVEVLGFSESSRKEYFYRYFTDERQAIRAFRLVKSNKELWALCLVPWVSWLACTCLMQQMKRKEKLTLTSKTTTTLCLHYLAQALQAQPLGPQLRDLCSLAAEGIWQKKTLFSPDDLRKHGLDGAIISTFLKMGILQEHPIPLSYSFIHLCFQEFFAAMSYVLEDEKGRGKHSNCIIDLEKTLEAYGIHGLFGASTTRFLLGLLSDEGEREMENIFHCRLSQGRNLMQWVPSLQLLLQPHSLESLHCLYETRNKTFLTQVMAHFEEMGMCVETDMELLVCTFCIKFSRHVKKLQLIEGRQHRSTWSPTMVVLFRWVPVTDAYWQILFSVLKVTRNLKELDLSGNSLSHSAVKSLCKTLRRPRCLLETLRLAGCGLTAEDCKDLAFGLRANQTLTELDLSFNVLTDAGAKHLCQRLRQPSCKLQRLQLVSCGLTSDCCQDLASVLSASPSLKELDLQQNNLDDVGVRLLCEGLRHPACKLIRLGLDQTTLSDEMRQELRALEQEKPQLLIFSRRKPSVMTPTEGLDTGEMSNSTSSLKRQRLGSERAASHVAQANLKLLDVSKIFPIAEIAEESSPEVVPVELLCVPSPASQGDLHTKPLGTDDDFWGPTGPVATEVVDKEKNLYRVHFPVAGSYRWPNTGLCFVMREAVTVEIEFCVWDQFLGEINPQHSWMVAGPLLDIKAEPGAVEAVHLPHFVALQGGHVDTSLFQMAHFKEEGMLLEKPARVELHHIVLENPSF
Chain of NACHT, LRR and PYD domains-containing protein 1 (Q9C000 1213-1473 limits assumed): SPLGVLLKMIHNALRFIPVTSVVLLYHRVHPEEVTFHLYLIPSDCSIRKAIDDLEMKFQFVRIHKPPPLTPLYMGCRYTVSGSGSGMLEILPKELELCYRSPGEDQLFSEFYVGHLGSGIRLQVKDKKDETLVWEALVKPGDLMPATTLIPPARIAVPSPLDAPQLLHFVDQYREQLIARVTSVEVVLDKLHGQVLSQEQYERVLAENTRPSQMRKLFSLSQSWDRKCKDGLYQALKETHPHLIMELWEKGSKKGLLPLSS

`COc1ccc(N(C(=O)CCl)C(C(=O)NCc2ccccc2)c2cccs2)cc1Cl` (stereo not given): the AC50 in experiment [1] is 179 nM (active); in [2], 98 nM (active); in experiment [3] it was 75 nM (active); in experiment [4], 336 nM (active).
Take `Cc1ccccc1CNC(=O)c1ccccc1N`: the IC50 in [5] is > 100 µM (inactive); in experiment [6], > 47.1 µM (inactive). Also, the EC50 in [7] is > 53 µM (inactive).
As for `COc1ccccc1N=C1SC(C(=O)Nc2ccc(F)cc2)CC(=O)N1C` (stereo not given), the IC50 in experiment [8] and in experiment [9] was > 100 µM (inactive) throughout.
For `COc1cc(/C=N/n2cnnc2)ccc1OCc1ccc(C)cc1`, the IC50 in experiment [10] is 7.08 µM (active); in experiment [13], 4.18 µM (active); with Saccharomyces cerevisiae it was > 100 µM (inactive); in experiment [14], > 100 µM (inactive). The EC50 in [11] was > 112 µM (not active); in [12], 20.8 µM (active).

For orientation: AC50 means the midpoint of the concentration-response curve, whichever way the signal moves.

The values above are taken from ChEMBL document CHEMBL1201862, “PubChem BioAssay data set” (2004).
